This is an account of results in patent US12661410B2, “Compounds for targeted degradation of RET” (C4 Therapeutics, Inc., priority 2020, dated 2026).

Changes are numbered by the printed parent chain. Where two headings read alike, the source gives them in different places.

For one assay, the target named is T1, RET(KD: 658-1114 G810R) (Homo sapiens, UniProt P07949, G810R).
T1 construct: 658-1114; expressed in transfected cells; host or cells: 293T.165 (293T cells, generated in-house)
T1 sequence (P07949 658-1114 G810R): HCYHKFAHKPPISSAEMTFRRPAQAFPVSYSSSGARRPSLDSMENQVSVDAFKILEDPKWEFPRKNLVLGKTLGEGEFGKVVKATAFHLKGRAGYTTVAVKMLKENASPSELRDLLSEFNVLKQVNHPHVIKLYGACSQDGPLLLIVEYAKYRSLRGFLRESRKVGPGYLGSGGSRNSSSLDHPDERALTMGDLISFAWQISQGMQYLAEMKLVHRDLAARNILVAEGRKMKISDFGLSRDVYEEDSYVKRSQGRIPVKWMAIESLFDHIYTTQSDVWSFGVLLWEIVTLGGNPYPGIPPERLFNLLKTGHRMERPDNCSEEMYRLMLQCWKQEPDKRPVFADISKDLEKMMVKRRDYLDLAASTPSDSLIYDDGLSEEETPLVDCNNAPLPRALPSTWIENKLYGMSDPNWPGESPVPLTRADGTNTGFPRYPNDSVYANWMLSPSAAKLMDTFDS
Kind of assay: HiBiT-Degradation, RET G810R degradation assay (Nano-Glo HiBiT Lytic), 293T.165 cells. Format: cell-based. As to conditions: for Emax / DC50: 6.0 hours. The essentials:
(§1)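 Degradation quantified by HiBiT lytic luminescence in 293T cells expressing tagged WT or G810R RET kinase domain after 6 h dosing up to 10 μM; DC50 and Emax fitted.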
On the technique in general: The HiBiT peptide binds its large partner to form an active luciferase.

Another assay addresses T2, RET (658-1114) (Homo sapiens, UniProt P07949).
T2 construct: 658-1114; expressed in transfected cells; host or cells: 293T.144 (293T cells, generated in-house)
T2 sequence (P07949 658-1114): T1 sequence (P07949 658-1114 G810R) with R153G
Kind of assay: HiBiT-Degradation, RET wild-type degradation assay (Nano-Glo HiBiT Lytic), 293T.144 cells. Format: cell-based. As to conditions: for DC50 / Emax: 6.0 hours. The gist of the method:
as §1

[1] abbreviates: % remaining protein, read-out: 293T.165 RET(KD: 658-1114 G810R) 6.0 hours (Emax).
Where [2] appears, read: half-maximal degradation concentration, read-out: 293T.165 RET(KD: 658-1114 G810R) 6.0 hours (DC50).
[3] abbreviates: RET G810R, read-out: HiBiT-Degradation 293T.165 RET(KD: 658-1114 G810R) 6.0 hours (DC50).
Setting [4] is: RET G810R, read-out: HiBiT-Degradation 293T.165 RET(KD: 658-1114 G810R) 6.0 hours (Emax).
The mark [5] stands for this setting: RET wild-type, read-out: HiBiT-Degradation 293T.144 RET (658-1114) 6.0 hours (DC50).
[6] abbreviates: RET wild-type, read-out: HiBiT-Degradation 293T.144 RET (658-1114) 6.0 hours (Emax).
Setting [7] is: % remaining protein, read-out: 293T.144 RET (658-1114) 6.0 hours (Emax).
Where [8] appears, read: half-maximal degradation concentration, read-out: 293T.144 RET (658-1114) 6.0 hours (DC50).

`CC(C)NC(=O)C1(C)CCN(c2ccc(-c3cc(-c4cnn([C@H]5CC[C@H](CCN6CCC(c7ccc8c(N9CCC(=O)NC9=O)nn(C)c8c7)CC6)CC5)c4)cn4ncc(C#N)c34)cn2)CC1` [Compound 86, 1-[5-[3-cyano-6-[1-[(1r,4r)-4-[2-[4-[3-(2,4-dioxohexahydropyrimidin-1-yl)-1-methyl-indazol-6-1]-1-piperidyl]ethyl]cyclohexyl]pyrazol-4-yl]pyrazolo[1,5-a]pyridin-4-yl]-2-pyridyl]-N-isopropyl-4-methyl-piperidine-4-carboxamide]: the maximum response (Emax) on RET(KD: 658-1114 G810R) (setting [1]), on RET(KD: 658-1114 G810R) (setting [4]) and at RET (658-1114) (setting [6]) was below 30% throughout. In addition, the DC50 (as a rule, the concentration giving 50% degradation) was below 100 nM on RET(KD: 658-1114 G810R) (setting [2]), below 100 nM on RET(KD: 658-1114 G810R) (setting [3]) and below 50 nM at RET (658-1114) (setting [5]). Also, the “HiBiT-Degradation 293T.165 RET(KD: 658-1114 G810R) 6.0 hours (IP) [nM]” value on RET(KD: 658-1114 G810R) (RET G810R) is listed as “++++ (< 50 nM = ++++)”. Moreover, the “HiBiT-Degradation 293T.144 RET (658-1114) 6.0 hours (IP) [nM]” value at RET (658-1114) (RET wild-type) is recorded as “++++ (< 50 nM = ++++)”.
With `CCC1(C(=O)NC(C)C)CCN(c2ccc(-c3cc(-c4cnn([C@H]5CC[C@@H](N6CCC(c7ccc(NC8CCC(=O)NC8=O)cc7F)CC6)CC5)c4)cn4ncc(C#N)c34)cn2)CC1` (stereo partly shown) [Compound 88, 1-(5-(3-cyano-6-(1-((1s, 4s)-4-(4-(4-((2,6-dioxopiperidin-3-yl)amino)-2-fluorophenyl)piperidin-1-yl)cyclohexyl)-1H-pyrazol-4-yl)pyrazolo[1,5-a]pyridin-4-yl)pyridin-2-yl)-4-ethyl-N-isopropylpiperidine-4-carboxamide], the maximal effect (Emax) (in general, the size of the effect at its maximum, as opposed to the concentration needed) on RET(KD: 658-1114 G810R) (setting [1]) is below 50%; on RET(KD: 658-1114 G810R) (setting [4]) it was below 50%; at RET (658-1114) (setting [6]), below 30%. For the same molecule, the DC50 on RET(KD: 658-1114 G810R) (setting [2]) was below 1000 nM; at RET(KD: 658-1114 G810R) (setting [3]), below 1000 nM; on RET (658-1114) (setting [5]), below 50 nM. At RET(KD: 658-1114 G810R) (RET G810R), the “HiBiT-Degradation 293T.165 RET(KD: 658-1114 G810R) 6.0 hours (IP) [nM]” value is listed as “++++ (< 50 nM = ++++)”. Further, on RET (658-1114) (RET wild-type), the “HiBiT-Degradation 293T.144 RET (658-1114) 6.0 hours (IP) [nM]” value is reported as “++++ (< 50 nM = ++++)”.
Take `CCC1(C(=O)NC(C)C)CCN(c2ccc(-c3nc(-c4cnn(C5CCN(C(=O)Cc6ccc(-c7ccc(NC8CCC(=O)NC8=O)cc7F)cc6)CC5)c4)cn4ncc(C#N)c34)cn2)CC1` (stereo not shown) [Compound 89, 1-[5-[3-cyano-6-[1-[1-[2-[4-[4-[(2,6-dioxo-3-piperidyl)amino]-2-fluoro-phenyl]phenyl]acetyl]-4-piperidyl]pyrazol-4-yl]pyrazolo[1,5-a]pyrazin-4-yl]-2-pyridyl]-4-ethyl-N-isopropyl-piperidine-4-carboxamide]: on RET(KD: 658-1114 G810R), the “293T.165 RET(KD: 658-1114 G810R) 6.0 hours (IP) [nM]” value was “++++ (<50 nM = ++++)”. Further, the figures for the Emax on RET(KD: 658-1114 G810R) (setting [1]) and at RET (658-1114) (setting [7]) were below 50% and below 30%, respectively. In addition, the DC50 at RET(KD: 658-1114 G810R) (setting [2]) is below 100 nM; on RET (658-1114) (setting [8]), below 50 nM. Also, the “293T.144 RET (658-1114) 6.0 hours (IP) [nM]” value at RET (658-1114) was “++++ (<50 nM = ++++)”.
Take `CCC1(C(=O)NC(C)C)CCN(c2ccc(-c3nc(-c4cnn(C5CCN(C(=O)CC6(O)CCN(c7cc(OC)c(NC8CCC(=O)NC8=O)cc7Cl)CC6)CC5)c4)cn4ncc(C#N)c34)cn2)CC1` (stereo not shown) [Compound 90, 1-[5-[6-[1-[1-[2-[1-[2-chloro-4-[(2,6-dioxo-3-piperidyl)amino]-5-methoxy-phenyl]-4-hydroxy-4-piperidyl]acetyl]-4-piperidyl]pyrazol-4-yl]-3-cyano-pyrazolo[1,5-a]pyrazin-4-yl]-2-pyridyl]-4-ethyl-N-isopropyl-piperidine-4-carboxamide]: the “293T.165 RET(KD: 658-1114 G810R) 6.0 hours (IP) [nM]” value on RET(KD: 658-1114 G810R) was “++++ (<50 nM = ++++)”. In addition, the maximal effect (Emax) on RET(KD: 658-1114 G810R) (setting [1]) and on RET (658-1114) (setting [7]) was below 30% each time. For the same molecule, the 50% degradation concentration (DC50) on RET(KD: 658-1114 G810R) (setting [2]) and on RET (658-1114) (setting [8]) was below 50 nM in each case. Further, on RET (658-1114), the “293T.144 RET (658-1114) 6.0 hours (IP) [nM]” value is listed as “++++ (<50 nM = ++++)”.
For the molecule `CCC1(C(=O)NC(C)C)CCN(c2ccc(-c3nc(-c4cnn(C5CCN(C(=O)CC6(O)CCN(c7cc(OC)c(NC8CCC(=O)NC8=O)cc7F)CC6)CC5)c4)cn4ncc(C#N)c34)cn2)CC1` (stereo not shown) [Compound 91, 1-[5-[3-cyano-6-[1-[1-[2-[1-[4-[(2,6-dioxo-3-piperidyl)amino]-2-fluoro-5-methoxy-phenyl]-4-hydroxy-4-piperidyl]acetyl]-4-piperidyl]pyrazol-4-yl]pyrazolo[1,5-a]pyrazin-4-yl]-2-pyridyl]-4-ethyl-N-isopropyl-piperidine-4-carboxamide], the “293T.165 RET(KD: 658-1114 G810R) 6.0 hours (IP) [nM]” value at RET(KD: 658-1114 G810R) is on record as “++++ (<50 nM = ++++)”. Moreover, the maximal effect (Emax) at RET(KD: 658-1114 G810R) (setting [1]) and on RET (658-1114) (setting [7]) was below 30% throughout. Further, the 50% degradation concentration (DC50) on RET(KD: 658-1114 G810R) (setting [2]) and on RET (658-1114) (setting [8]) was below 50 nM in each case. Also, the “293T.144 RET (658-1114) 6.0 hours (IP) [nM]” value on RET (658-1114) is “++++ (<50 nM = ++++)”.
`CCC1(C(=O)NC(C)C)CCN(c2ccc(-c3nc(-c4cnn(C5CCN(C(=O)CC6(OC)CCN(c7ccc(NC8CCC(=O)NC8=O)cc7F)CC6)CC5)c4)cn4ncc(C#N)c34)cn2)CC1` (stereo not shown) [Compound 92, 1-[5-[3-cyano-6-[1-[1-[2-[1-[4-[(2,6-dioxo-3-piperidyl)amino]-2-fluoro-phenyl]-4-methoxy-4-piperidyl]acetyl]-4-piperidyl]pyrazol-4-yl]pyrazolo[1,5-a]pyrazin-4-yl]-2-pyridyl]-4-ethyl-N-isopropyl-piperidine-4-carboxamide]: on RET(KD: 658-1114 G810R), the “293T.165 RET(KD: 658-1114 G810R) 6.0 hours (IP) [nM]” value is “++++ (<50 nM = ++++)”. Moreover, the Emax on RET(KD: 658-1114 G810R) (setting [1]) and on RET (658-1114) (setting [7]) was below 30% throughout. Also, the DC50 on RET(KD: 658-1114 G810R) (setting [2]) is below 100 nM; on RET (658-1114) (setting [8]) it was below 50 nM. The “293T.144 RET (658-1114) 6.0 hours (IP) [nM]” value on RET (658-1114) is listed as “++++ (<50 nM = ++++)”.
`CCC1(C(=O)NC(C)C)CCN(c2ccc(-c3nc(-c4cnn(C5CCN(C(=O)CN6C7CCC6CC(c6ccc(NC8CCC(=O)NC8=O)cc6F)C7)CC5)c4)cn4ncc(C#N)c34)cn2)CC1` (stereo not shown) [Compound 94, 1-[5-[3-cyano-6-[1-[1-[2-[3-[4-[(2,6-dioxo-3-piperidyl)amino]-2-fluoro-phenyl]-8-azabicyclo[3.2.1]octan-8-yl]acetyl]-4-piperidyl]pyrazol-4-yl]pyrazolo[1,5-a]pyrazin-4-yl]-2-pyridyl]-4-ethyl-N-isopropyl-piperidine-4-carboxamide]: at RET(KD: 658-1114 G810R), the “293T.165 RET(KD: 658-1114 G810R) 6.0 hours (IP) [nM]” value is “++++ (<50 nM = ++++)”. In addition, the Emax at RET(KD: 658-1114 G810R) (setting [1]) and at RET (658-1114) (setting [7]) was below 30% each time. Also, the 50% degradation concentration (DC50) on RET(KD: 658-1114 G810R) (setting [2]) and at RET (658-1114) (setting [8]) was below 50 nM in each case. The “293T.144 RET (658-1114) 6.0 hours (IP) [nM]” value on RET (658-1114) was “++++ (<50 nM = ++++)”.
For the molecule `CCC1(C(=O)NC(C)C)CCN(c2ccc(-c3nc(-c4cnn(C5CCN(C(=O)CC6(O)CCN(c7ccc(NC8CCC(=O)NC8=O)cc7Br)CC6)CC5)c4)cn4ncc(C#N)c34)cn2)CC1` (stereo not shown) [Compound 95, 1-[5-[6-[1-[1-[2-[1-[2-bromo-4-[(2,6-dioxo-3-piperidyl)amino]phenyl]-4-hydroxy-4-piperidyl]acetyl]-4-piperidyl]pyrazol-4-yl]-3-cyano-pyrazolo[1,5-a]pyrazin-4-yl]-2-pyridyl]-4-ethyl-N-isopropyl-piperidine-4-carboxamide], on RET(KD: 658-1114 G810R), the “293T.165 RET(KD: 658-1114 G810R) 6.0 hours (IP) [nM]” value is “++++ (<50 nM = ++++)”. Moreover, the maximal response (Emax) at RET(KD: 658-1114 G810R) (setting [1]) and at RET (658-1114) (setting [7]) was below 30% throughout. For the same molecule, the 50% degradation concentration (DC50) at RET(KD: 658-1114 G810R) (setting [2]) and at RET (658-1114) (setting [8]) was below 50 nM in each case. Besides, the “293T.144 RET (658-1114) 6.0 hours (IP) [nM]” value at RET (658-1114) was “++++ (<50 nM = ++++)”.
